In patent publication US20250382588A1, “CHIMERIC AAV AND USES THEREOF” (priority 2023, published 2025):

What was measured:
[1] = target: T1, hM3Dq (Homo sapiens, UniProt P20309, A239G/Y149C); experiment: Electrophysiological recording in caudate after CNO infusion, AAV8R12-G88P3-HA-hM3Dq macaques; format: in vivo
T1 construct: HA (N); expressed in transfected cells; host or cells: neurons (striatal D1-MSNs, some SNr neurons) of C57BL/6J mice or cynomolgus macaques transduced by nigral AAV8R12-G88P3-HA-hM3Dq
T1 sequence (P20309 whole entry Y149C/A239G, the tested form may be a part): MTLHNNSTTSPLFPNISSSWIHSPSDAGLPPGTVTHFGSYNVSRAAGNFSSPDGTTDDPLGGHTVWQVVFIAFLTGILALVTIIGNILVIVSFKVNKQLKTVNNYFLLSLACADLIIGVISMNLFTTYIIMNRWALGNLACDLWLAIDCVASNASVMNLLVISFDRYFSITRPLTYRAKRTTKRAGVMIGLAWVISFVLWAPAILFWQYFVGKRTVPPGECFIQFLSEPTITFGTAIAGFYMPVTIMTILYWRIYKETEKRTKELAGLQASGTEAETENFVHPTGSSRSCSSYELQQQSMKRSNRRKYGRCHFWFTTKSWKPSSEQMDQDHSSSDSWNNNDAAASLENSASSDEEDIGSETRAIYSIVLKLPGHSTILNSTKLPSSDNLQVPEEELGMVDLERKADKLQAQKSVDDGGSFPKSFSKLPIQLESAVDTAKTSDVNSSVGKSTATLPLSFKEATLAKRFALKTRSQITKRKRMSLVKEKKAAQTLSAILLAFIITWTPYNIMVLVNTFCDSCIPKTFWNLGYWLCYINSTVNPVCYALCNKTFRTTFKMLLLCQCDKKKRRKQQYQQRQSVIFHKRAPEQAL
Protocol: (§1) Electrophysiological recording was performed through a recording chamber while the monkey was anesthetized. Neural responses were recorded by a 16-channel linear probe (Plexon Inc, Uprobe) driven by a mechanical microdrive (Alpha Omega, FlexMT). Signals were passed through a head stage (Plexon Inc, HST/16V-G20 LN) and then split and filtered between 300 Hz and 5 kHz to identify spiking activity with an amplifier system (Plexon Inc, OmniPlex). Detected spikes were then sorted by commercially available software (Plexon Inc, Offline Sorter) for further analysis. To quantify the effect of CNO/DCZ injection, neural activity was recorded for 60 minutes following CNO/DCZ injection. The response time-course for each channel was obtained by counting the spikes within every 10-minute window and then normalizing to the maximal.
(§2) To determine the effect of CNO/DCZ injection on the direction of signal change, we performed Pearson correlation between neural responses and time using the ‘corr’ function in Matlab, which generates the correlation coefficient ‘r’ and significant level ‘p’. A neuron was considered to have “Increased” activity when r>0 and p<[…]; and considered to have “Decreased” activity when r<0 and p<0.05. Otherwise, neurons were considered to be “Unchanged” in their neural activities. The responses of all increased neurons were then averaged after being normalized by the maximal response (Crowe et al., 2014; Dai and Wang, 2018; Hirokawa et al., 2019) following CNO/DCZ injection, and then plotted as a function of time to generate the normalized population response.

[2] = target: T2, rM3Ds (Rattus norvegicus, UniProt P08483, A177S/A238G/A489L/DEL261-437/DEL441-478/E258S/I253V/I483M/INS256[…]/K178L/K182A/K255R/K484R/K486H/L173F/L482A/M480V/R171S/R176Q/R179M/S481M/T174R/T181R/T257A/Y148C); experiment: Electrophysiological recording in caudate/putamen of MPP+ lesioned macaques after CNO or DCZ; format: in vivo
T2 sequence (P08483 with tags, fused parts or gaps Y148C/R171S/L173F/T174R/R176Q/A177S/K178L/R179M/T181R/K182A/A238G/I253V/K255R/INS256[…]/T257A/E258S/DEL261-437/DEL441-478/M480V/S481M/L482A/I483M/K484R/K486H/A489L): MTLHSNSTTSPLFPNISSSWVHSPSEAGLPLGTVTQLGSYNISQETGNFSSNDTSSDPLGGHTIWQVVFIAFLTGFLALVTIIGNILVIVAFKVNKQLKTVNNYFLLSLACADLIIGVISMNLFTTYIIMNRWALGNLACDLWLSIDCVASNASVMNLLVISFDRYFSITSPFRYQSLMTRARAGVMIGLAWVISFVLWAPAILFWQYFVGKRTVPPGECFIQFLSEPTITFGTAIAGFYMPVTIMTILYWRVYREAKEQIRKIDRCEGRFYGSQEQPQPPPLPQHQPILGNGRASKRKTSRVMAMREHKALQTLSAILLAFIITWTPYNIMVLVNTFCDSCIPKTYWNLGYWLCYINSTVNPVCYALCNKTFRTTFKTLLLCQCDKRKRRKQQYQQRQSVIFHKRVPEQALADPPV
Protocol: Intriguingly, many of the symptoms were greatly reversed after systemic deschloroclozapine (DCZ) administration. DCZ is a potent brain-penetrable agonist for rM3Ds with reduced off-targeting binding compared to CNO, and was administered to activate the DREADD system in the macaque brain.
as §1, §2

[3] = monkey CM045, 34 cells in caudate
[4] = caudate/putamen, CNO 36 cells, DCZ 31 cells

In the case of `C[N+]1([O-])CCN(C2=Nc3cc(Cl)ccc3Nc3ccccc32)CC1` [CNO, clozapine N-oxide], the “cells activated (FIG. 12L)” value ([1]; 34 total cells in the caudate) is reported as 67.6%, the “cells inactivated (FIG. 12L)” value ([1]; 34 total cells in the caudate) is reported as 2.9% and the “cells unchanged (FIG. 12L)” value ([1]; 34 total cells in the caudate) is reported as 29.4%. The “cells activated (FIG. 12C)” value [1, 3] was 70.6%, the “cells inactivated (FIG. 12C)” value [1, 3] was 8.8% and the “cells unchanged (FIG. 12C)” value [1, 3] was 20.6%. The “neuronal activity in MPP+ lesioned macaques, in words” value ([2]; anesthetized animals) was “induced an increase in neuronal activity”, the “cells activated (FIG. 15G)” value [2, 4] was 52.8% and the “cells inactivated (FIG. 15G)” value [2, 4] was 13.9%. The “cells unchanged (FIG. 15G)” value [2, 4] was 33.3%.
